Test system: LH
Assay: LH concentrations in synchronized dairy heifers, Example 6
Assay type: in vivo
Settings: GnRH (100 μg) positive control
Description: Experimental formulations were prepared by weighing and mixing SAIB, solvent and deslorelin acetate (DA) to give a final concentration of 25 μg/ml. The SAIB: diluting solvent composition was:SAIB/propylene carbonate 70:30 w/w). Experimental DA Treatments were sterilized using gamma radiation. 30 healthy cyclic dairy heifers weighing about 750-800 lbs (340-364 kg) were used. This study was designed as a parallel group design. All heifers were synchronized using pretreatment with 100 μg GnRH (Cystorellin, Merial, Ltd., Islin, NJ) on day -7 followed by 25 mg PGF2α (Lutalyse Pharmacia-Upjohn Co. Kalamazoo, Mich.) treatment one week later. Forty eight hours after PGF2α treatment heifers received saline (negative controls), Cystorellin ([…]; positive controls) or Deslorelin-SABER (DA-slow delivery preparation; at 12.5, 25, 50 or 100 μg intra-muscular). Blood samples were collected by veni-puncture through shaved and aseptic-swabbed sites at -48, 0, 0.5, 1, 2, 4, 6, 12, 18, 24, 36, and 48 hours after treatment for LH analysis. […] were randomly assigned to one of 6 blinded treatment groups (n=5/group) to avoid interpretation bias.

GnRH: GnRH (Cystorellin, Merial, Ltd.), positive control (QHWSYGLRPG; Gonadoliberin-1; UniProt P01148 24-33, looked up)
LH concentration at peak (average): 22.3 ng/mL | time of peak LH post-treatment: 1 h
